According to ChEMBL document CHEMBL2021885, “Triphenylbutanamines: kinesin spindle protein inhibitors with in vivo antitumor activity” (J Med Chem, 2012):
Activity calls are given as the source filed them. The calls are words filed in the database; no cut-off is given here.

Legend:
[1] = Turbidimetric solubility of the compound at pH 6; type: physicochemical; conditions: buffer
[2] = Turbidimetric solubility of the compound at pH 7.4; type: physicochemical; conditions: buffer
[3] = Distribution coefficient, log D of the compound at pH 7.4; type: physicochemical; conditions: octanol/water, read-out: logD
[4] = Antitumor activity against human LXFS 538 cells xenografted in nu/nu nude Charles river mouse assessed as tumor volume doubling time at 20 mg/kg on days 0, 2 and 4 and 15 mg/kg on days 17, 19, 24 measured after 28 days (reference value: 8.8 days); type: functional
[5] = target: T1, Kinesin-like protein KIF20A (Homo sapiens) (UniProt O95235); test: Inhibition of MT-stimulated MKLP2 ATPase activity
T1 sequence (whole entry): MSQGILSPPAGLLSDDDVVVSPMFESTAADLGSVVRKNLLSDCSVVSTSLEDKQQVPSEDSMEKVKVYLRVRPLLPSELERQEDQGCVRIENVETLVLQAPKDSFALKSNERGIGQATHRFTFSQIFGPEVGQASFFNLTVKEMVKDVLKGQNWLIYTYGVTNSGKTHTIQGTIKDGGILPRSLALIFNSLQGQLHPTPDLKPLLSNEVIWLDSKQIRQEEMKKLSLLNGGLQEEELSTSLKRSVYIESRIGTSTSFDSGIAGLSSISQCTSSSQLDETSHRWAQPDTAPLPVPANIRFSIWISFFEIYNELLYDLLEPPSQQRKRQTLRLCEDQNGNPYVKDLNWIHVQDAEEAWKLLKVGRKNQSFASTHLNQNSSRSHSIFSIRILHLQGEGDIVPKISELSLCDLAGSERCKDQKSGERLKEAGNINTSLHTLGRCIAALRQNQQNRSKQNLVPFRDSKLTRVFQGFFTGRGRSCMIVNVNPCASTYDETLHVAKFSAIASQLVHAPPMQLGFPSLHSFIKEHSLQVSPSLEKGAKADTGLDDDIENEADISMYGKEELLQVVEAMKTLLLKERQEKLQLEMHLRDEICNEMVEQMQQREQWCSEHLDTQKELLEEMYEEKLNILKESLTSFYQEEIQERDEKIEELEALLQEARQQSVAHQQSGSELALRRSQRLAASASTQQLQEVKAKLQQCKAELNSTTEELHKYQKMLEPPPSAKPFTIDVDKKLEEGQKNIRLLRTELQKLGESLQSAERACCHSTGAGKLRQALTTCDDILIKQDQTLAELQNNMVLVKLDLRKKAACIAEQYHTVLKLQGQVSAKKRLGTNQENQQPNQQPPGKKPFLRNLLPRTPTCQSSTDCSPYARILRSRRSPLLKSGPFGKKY

[6] = target: Kinesin-like protein KIF20B (Homo sapiens) (UniProt Q96Q89); test: Inhibition of MPP1 ATPase activity
[7] = target: Centromere-associated protein E (Homo sapiens) (UniProt Q02224); test: Inhibition of CENP-E ATPase activity
BXPC-3 = test: Antiproliferative activity against human BxPC3 cells after 72 hrs by Alamar blue assay; type: functional; conditions: BXPC-3, 72 h
[8] = Antiproliferative activity against human hTERT-HME1 cells after 72 hrs by Alamar blue assay; type: cell-based
NCI-H1299 = test: Antiproliferative activity against human NCI-H1299 cells after 72 hrs by Alamar blue assay; type: functional; conditions: NCI-H1299, 72 h
[9] = target: T2, Kinesin heavy chain isoform 5A (Homo sapiens) (UniProt Q12840); test: Inhibition of Kif5a ATPase activity
T2 sequence (whole entry): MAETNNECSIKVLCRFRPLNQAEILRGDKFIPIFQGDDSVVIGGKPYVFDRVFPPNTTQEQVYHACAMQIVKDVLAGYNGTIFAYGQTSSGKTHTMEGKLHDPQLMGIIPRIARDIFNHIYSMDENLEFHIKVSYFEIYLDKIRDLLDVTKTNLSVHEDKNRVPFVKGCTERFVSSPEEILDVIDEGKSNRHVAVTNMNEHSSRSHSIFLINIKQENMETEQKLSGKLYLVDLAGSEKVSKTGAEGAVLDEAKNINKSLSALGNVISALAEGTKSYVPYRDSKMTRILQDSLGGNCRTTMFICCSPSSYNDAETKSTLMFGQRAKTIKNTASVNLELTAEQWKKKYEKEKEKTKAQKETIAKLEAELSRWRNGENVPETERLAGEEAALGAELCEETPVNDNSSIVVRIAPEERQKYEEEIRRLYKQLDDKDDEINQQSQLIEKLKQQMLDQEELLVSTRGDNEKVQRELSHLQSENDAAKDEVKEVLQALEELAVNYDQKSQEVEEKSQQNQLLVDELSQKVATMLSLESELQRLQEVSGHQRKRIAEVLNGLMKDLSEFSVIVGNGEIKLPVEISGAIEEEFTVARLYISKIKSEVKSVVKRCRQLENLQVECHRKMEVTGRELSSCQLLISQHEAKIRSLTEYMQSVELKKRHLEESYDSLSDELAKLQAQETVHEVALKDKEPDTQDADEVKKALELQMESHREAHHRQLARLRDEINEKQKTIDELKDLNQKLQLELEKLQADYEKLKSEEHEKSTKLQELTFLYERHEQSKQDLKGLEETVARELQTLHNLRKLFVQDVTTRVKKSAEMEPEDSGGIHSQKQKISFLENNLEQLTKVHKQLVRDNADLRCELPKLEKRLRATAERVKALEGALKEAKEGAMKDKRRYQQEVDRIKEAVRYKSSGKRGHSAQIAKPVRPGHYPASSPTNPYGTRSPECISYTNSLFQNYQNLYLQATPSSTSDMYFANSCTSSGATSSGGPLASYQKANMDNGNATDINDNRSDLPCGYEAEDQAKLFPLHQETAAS

HCT-116 = test: Antiproliferative activity against human HCT116 cells after 72 hrs by Alamar blue assay; type: functional; conditions: HCT-116, 72 h
[10] = target: Kinesin-like protein KIF20B (Homo sapiens) (UniProt Q96Q89); test: Inhibition of MT-stimulated MPP1 ATPase activity

Chain of Kinesin-like protein KIF20B (Homo sapiens) (Q96Q89 whole entry): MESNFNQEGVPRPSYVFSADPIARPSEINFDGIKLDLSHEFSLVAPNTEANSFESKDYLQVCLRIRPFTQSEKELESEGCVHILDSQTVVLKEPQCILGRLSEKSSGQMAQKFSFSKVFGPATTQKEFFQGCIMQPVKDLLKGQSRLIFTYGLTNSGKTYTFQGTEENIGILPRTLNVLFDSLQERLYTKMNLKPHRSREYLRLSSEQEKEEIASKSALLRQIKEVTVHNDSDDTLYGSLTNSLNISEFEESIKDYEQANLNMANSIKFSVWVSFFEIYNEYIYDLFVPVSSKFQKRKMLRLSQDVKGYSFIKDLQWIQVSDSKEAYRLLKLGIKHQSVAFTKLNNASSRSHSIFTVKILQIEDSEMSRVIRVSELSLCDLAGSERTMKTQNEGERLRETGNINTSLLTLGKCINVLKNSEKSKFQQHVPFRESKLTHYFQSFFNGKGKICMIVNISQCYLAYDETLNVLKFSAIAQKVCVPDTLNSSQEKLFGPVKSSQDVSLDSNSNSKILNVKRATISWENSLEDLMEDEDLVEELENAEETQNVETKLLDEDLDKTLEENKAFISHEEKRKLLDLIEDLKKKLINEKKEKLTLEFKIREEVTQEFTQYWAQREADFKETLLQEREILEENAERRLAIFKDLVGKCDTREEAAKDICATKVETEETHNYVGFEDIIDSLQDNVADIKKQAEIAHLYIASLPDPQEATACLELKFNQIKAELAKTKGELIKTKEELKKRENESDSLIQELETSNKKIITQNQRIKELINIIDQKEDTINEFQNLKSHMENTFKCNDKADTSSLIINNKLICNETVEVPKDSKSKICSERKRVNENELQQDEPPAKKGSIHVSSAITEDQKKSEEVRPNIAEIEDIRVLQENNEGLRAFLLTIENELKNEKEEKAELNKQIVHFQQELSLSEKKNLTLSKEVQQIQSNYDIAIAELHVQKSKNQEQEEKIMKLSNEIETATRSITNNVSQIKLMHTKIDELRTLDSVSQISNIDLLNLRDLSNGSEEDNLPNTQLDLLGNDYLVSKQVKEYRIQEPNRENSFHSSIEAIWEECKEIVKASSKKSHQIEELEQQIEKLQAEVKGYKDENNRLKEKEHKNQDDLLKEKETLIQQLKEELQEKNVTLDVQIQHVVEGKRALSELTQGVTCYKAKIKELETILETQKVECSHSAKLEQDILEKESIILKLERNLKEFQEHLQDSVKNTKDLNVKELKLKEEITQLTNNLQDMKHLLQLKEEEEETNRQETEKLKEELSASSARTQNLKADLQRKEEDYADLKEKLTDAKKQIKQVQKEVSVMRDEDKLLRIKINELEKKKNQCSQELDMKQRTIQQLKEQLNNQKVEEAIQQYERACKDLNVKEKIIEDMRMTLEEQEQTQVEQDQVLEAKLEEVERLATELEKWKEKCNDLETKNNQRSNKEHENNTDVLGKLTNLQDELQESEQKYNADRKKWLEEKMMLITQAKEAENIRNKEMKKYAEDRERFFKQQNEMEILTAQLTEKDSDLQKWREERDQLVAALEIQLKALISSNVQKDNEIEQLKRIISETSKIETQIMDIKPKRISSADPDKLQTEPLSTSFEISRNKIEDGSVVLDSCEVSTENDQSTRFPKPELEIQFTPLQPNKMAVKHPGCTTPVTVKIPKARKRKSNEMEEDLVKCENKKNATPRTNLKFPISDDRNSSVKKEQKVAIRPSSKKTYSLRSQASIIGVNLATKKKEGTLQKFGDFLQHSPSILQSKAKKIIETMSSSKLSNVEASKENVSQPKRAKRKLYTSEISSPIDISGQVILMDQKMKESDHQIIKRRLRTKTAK
Chain of Centromere-associated protein E (Homo sapiens) (Q02224 whole entry): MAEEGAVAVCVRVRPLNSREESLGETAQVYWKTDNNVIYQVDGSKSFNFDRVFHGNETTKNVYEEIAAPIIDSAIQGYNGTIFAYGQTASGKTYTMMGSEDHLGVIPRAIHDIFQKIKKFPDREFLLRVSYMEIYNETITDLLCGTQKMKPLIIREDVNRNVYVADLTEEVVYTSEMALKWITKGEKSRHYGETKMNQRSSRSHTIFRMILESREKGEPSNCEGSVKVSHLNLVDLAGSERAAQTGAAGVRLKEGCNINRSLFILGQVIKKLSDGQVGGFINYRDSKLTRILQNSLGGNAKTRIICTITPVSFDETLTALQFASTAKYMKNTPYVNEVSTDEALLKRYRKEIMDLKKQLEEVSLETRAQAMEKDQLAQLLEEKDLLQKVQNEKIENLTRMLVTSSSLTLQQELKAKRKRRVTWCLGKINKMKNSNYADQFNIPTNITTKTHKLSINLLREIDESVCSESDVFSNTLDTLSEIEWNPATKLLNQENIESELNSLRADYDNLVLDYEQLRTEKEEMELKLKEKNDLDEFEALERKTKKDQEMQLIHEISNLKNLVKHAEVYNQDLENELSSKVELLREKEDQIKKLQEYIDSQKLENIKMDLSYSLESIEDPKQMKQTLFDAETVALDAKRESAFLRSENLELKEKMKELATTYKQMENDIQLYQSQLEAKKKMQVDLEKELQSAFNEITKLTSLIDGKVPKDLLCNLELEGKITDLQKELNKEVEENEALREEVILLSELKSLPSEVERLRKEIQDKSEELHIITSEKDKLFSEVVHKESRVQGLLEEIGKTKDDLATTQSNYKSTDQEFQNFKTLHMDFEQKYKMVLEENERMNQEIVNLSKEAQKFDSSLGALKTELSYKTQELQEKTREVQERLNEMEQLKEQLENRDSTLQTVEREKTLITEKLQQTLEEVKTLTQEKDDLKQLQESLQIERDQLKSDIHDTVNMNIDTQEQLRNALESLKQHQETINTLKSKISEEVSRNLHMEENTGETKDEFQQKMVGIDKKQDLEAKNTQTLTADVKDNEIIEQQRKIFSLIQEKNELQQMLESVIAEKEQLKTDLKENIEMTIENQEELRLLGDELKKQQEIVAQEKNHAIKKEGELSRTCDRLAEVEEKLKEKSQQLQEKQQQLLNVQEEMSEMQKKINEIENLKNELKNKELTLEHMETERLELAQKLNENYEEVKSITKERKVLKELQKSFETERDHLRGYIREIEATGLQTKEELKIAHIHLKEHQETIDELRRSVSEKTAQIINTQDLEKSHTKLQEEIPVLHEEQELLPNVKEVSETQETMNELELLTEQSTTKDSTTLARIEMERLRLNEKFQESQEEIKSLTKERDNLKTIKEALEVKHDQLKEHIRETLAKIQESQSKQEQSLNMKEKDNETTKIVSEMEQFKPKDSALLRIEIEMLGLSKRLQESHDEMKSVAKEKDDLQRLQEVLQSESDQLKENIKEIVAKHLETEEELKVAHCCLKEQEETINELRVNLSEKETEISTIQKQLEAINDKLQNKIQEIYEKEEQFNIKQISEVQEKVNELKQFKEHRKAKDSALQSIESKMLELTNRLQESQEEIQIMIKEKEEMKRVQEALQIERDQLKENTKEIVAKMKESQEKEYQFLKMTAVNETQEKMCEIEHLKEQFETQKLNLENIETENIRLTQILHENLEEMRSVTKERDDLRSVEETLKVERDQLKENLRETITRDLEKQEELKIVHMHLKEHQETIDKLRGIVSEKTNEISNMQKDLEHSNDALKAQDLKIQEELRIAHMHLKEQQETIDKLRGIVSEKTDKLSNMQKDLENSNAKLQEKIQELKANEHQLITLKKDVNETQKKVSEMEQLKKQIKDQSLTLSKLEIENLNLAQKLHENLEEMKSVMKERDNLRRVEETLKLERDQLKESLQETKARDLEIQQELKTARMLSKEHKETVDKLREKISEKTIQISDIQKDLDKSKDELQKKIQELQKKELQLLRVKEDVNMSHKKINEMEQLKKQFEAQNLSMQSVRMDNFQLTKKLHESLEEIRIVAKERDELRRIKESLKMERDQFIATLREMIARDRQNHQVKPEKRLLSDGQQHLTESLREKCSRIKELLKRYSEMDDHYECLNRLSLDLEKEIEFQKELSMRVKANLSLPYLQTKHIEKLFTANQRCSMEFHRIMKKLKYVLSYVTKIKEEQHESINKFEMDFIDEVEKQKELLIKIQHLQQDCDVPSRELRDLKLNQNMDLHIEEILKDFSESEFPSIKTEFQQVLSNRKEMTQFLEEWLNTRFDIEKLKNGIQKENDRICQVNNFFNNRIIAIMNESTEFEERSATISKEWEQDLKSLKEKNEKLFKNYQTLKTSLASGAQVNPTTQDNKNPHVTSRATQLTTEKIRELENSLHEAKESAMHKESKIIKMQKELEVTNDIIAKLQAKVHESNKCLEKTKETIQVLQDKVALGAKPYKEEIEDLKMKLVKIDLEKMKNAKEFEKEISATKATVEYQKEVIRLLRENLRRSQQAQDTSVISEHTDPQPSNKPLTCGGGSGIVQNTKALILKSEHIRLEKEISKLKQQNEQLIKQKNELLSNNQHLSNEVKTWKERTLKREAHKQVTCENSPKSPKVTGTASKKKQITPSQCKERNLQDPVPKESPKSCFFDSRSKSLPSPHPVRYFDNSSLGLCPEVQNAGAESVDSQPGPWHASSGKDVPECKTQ

SMILES: Cc1cccc(C(CCC(N)C(=O)O)(c2ccccc2)c2ccccc2)c1 (racemic)
- solubility kinetic [1]: > 100 µM
- solubility kinetic [2]: > 100 µM
- logD [3]: 2.45
- Time [4]: 28.7 days
- inhibition [5]: inactive
- inhibition [6]: inactive
- inhibition [7]: inactive
- GI50 (BXPC-3): 0.144 µM
- GI50 at 72 h [8]: 0.038 µM
- GI50 (NCI-H1299): 0.137 µM
- inhibition [9]: inactive
- GI50 (HCT-116): 0.099 µM
- inhibition [10]: inactive
